For data set [1] the following is noted: for k RS: enantiomerization rate constant h-R-pio to h-S-pio / k SR: enantiomerization rate constant h-S-pio to h-R-pio: C57BL/6, mouse, 5 M (sic).
The conditions of data set [2]: for k RS: enantiomerization rate constant h-R-pio to h-S-pio / k SR: enantiomerization rate constant h-S-pio to h-R-pio: 5 M (sic).
A further data set concerns C2C12 cells. Kind of data set: Mitochondrial respiration (mitochondrial stress test, maximal respiration) in C2C12 cells. The data set is classed as cell-based. The note with it: 30 µM for 15, 30, or 90 min, vs vehicle-treated cells; 10 mM sodium pyruvate. From the text:
[…]. […] […].

Data set [3] is described as follows: Body weight gain in male C57BL/6J mice on a standard diet. Format: in vivo. To be noted: twice daily oral gavage 11 days; overall daily dose h-rac-pio 30 mg/kg, d-S-pio 15 mg/kg, d-R-pio 15 mg/kg. The procedure:
Male C57BL/6J mice (about 28 g body weight) were acclimated singly-housed for one week to a reverse light/dark cycle with free access to water and standard maintenance diet. Animals were then handled daily for one week followed by another 7 days of twice daily dosing with vehicle (0.5% methylcellulose in water) by oral gavage. […] Body weights were measured twice daily, prior to each dosing, to adjust individual dosing volumes to actual body weights.

Another data set has as its system db/db mice. Kind of data set: db/db mouse model of Type II diabetes, 10-day daily oral dosing. The note with it: oral daily 10 days, h-rac-pio 30 mg/kg; for decrease of cytokines IL-1p, IL-6, and TNF-α / decrease of serum amyloid A / effect on non-essential fatty acids (decrease compared with h-rac-pio) / effect on non-fasted blood glucose: d-R-pio 20 mg/kg; for effect on adiponectin / effect on non-essential fatty acids (decrease compared with h-rac-pio) / effect on non-fasted blood glucose: d-S-pio 20 mg/kg. Format: in vivo. The procedure:
Quantitative results were analyzed by statistical methods using, as appropriate, one- or two-way ANOVA or Kruskal-Wallis tests for differences followed by Sidak's, Dunnett's, or Dunn's post-test to determine differences vs. vehicle-treated control animals. All graphs were generated with GraphPad Prism version 6.0.2 (GraphPad Software, Inc., La Jolla, Calif.).

In data set [4] the target is T1, human recombinant monoamine oxidase B (Homo sapiens, UniProt P27338).
T1 sequence (P27338 1-520): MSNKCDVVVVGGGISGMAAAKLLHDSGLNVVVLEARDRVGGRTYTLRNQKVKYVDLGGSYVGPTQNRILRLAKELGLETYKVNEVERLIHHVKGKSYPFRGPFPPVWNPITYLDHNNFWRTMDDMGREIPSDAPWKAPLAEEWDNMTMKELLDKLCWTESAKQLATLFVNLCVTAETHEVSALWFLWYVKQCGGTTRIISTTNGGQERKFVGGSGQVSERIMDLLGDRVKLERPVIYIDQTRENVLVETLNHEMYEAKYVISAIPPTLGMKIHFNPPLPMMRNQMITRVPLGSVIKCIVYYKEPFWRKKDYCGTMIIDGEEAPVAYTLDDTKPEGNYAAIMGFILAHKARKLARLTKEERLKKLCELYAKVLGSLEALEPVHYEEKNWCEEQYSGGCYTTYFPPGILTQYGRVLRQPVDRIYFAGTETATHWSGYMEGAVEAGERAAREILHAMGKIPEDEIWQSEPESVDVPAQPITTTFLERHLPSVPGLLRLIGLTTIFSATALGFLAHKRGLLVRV
Kind of data set: Monoamine oxidase B (MAO-B) inhibition, luminescence. Format: biochemical. The procedure: The mixtures were incubated at 22° C. for 5 min. Substrate (D-luciferin derivative) was added, and then the mixture was incubated at 37° C. for 60 min. The reaction was stopped by addition of the detection reagent containing luciferase. Luminescence was read after standing for 60 min at room temperature.
Results were expressed as a percentage of the luminescence of the control (enzyme+substrate). IC50 values were obtained by fitting experimental data (mean % luminescence as function of concentration) to the Hill equation with variable slope using non-linear regression analysis.

This is an account of results in patent publication US20200390753A1, “COMBINATION THERAPY USING ENANTIOPURE, OXY-SUBSTITUTED, DEUTERIUM-ENRICHED 5-(BENZYL)-5-DEUTERO-THIAZOLIDINE-2,4-DIONES FOR TREATMENT OF MEDICAL DISORDERS” (priority 2015, published 2020).

The structures appear in SMILES notation. Where two headings read alike, the source gives them in different places.

As for `[2H]C1(Cc2ccc(OCCc3ccc(CC)cn3)cc2)SC(=O)NC1=O` (racemic) [d-rac-pio], in data set [1] (mouse, plasma), the “t1/2 of d-S-pio (k=kDSR+kDSS)” value amounted to 36 min, the “t1/2 of h-R-pio (RS*) from averaged kRS” value came to 54 min and the “t1/2 of h-S-pio (SR*) from averaged kSR” value was 45 min. Moreover, in data set [2] (human, plasma), the “t1/2 of h-R-pio (RS*) from averaged kRS” value is 96 min and the “t1/2 of h-S-pio (SR*) from averaged kSR” value is 96 min.
`CCc1ccc(CCOc2ccc(CC3SC(=O)NC3=O)cc2)nc1` (racemic) [h-rac-pio, rac-5-({p-[2-(5-Ethyl-2-pyridyl)ethoxy]phenyl}methyl)-1,3-thiazolidine-2,4-dione, reference compound]: the “effect on maximal respiration (oxygen consumption rate)” value (“effect on maximal respiration” for short) in the data set with C2C12 cells is on record as “inhibited maximal respiration”. Also, the “percent body weight difference versus day 1, compared to vehicle” value in data set [3] is reported as “statistically significant increase”. Besides, in the data set with db/db mice (vs vehicle), the “decrease of cytokines IL-1p, IL-6, and TNF-α” value is “trending”; the “decrease of serum amyloid A” value is “statistically significant”; the effect on adiponectin result is reported as “significantly increased”; the effect on insulin result was “significantly decreased”.
For `[2H][C@]1(Cc2ccc(OCCc3ccc(CC)cn3)cc2)SC(=O)NC1=O` [d-R-pio, (R)-5-({p-[2-(5-Ethyl-2-pyridyl)ethoxy]phenyl}methyl)-(5-^2H)-1,3-thiazolidine-2,4-dione], the “difference in inhibition efficacy between d-R-pio and d-S-pio” value in data set [4] is given as “greater than 5 fold”. In addition, the “effect on maximal respiration” value in the data set on C2C12 cells is recorded as “inhibited maximal respiration”. In data set [3], the “percent body weight difference versus day 1, compared to vehicle” value was “did not increase”. In addition, in the data set with db/db mice (vs vehicle), the “decrease of cytokines IL-1p, IL-6, and TNF-α” value is “trending”; the “decrease of serum amyloid A” value was “statistically significant”. Also, in the data set with db/db mice, the “effect on non-essential fatty acids (decrease compared with h-rac-pio)” value was “a similar trend was observed” and the “effect on non-fasted blood glucose” value is on record as “decreased non-fasted blood glucose to approximately the same extent as h-rac-pio”.
For the compound `[2H][C@@]1(Cc2ccc(OCCc3ccc(CC)cn3)cc2)SC(=O)NC1=O` [d-S-pio, (S)-5-({p-[2-(5-Ethyl-2-pyridyl)ethoxy]phenyl}methyl)-(5-^2H)-1,3-thiazolidine-2,4-dione], the “half-life of d-S-pio compared with h-S-pio” value in data set [2] (plasma) is given as “approximately the same as the half-life for h-S-pio”. In addition, the “effect on maximal respiration” value with C2C12 cells was “no significant measurable effect”. Moreover, the “percent body weight difference versus day 1, compared to vehicle” value in data set [3] is on record as “statistically significant increase”. In the data set on db/db mice, the “effect on non-essential fatty acids (decrease compared with h-rac-pio)” value was “a similar trend was observed” and the “effect on non-fasted blood glucose” value is given as “decreased non-fasted blood glucose to approximately the same extent as h-rac-pio”. In addition, in the data set on db/db mice (vs vehicle), the effect on adiponectin entry is recorded as “significantly increased”.
On to `CCc1ccc(CCOc2ccc(C[C@H]3SC(=O)NC3=O)cc2)nc1` [h-R-pio], for which, in data set [1], the “k RS: enantiomerization rate constant h-R-pio to h-S-pio” value came out at 0.694 h⁻¹ and the “k SR: enantiomerization rate constant h-S-pio to h-R-pio” value was determined as 0.867 h⁻¹. Moreover, in data set [2] (human), the “k RS: enantiomerization rate constant h-R-pio to h-S-pio” value turned out to be 0.447 h⁻¹ and the “k SR: enantiomerization rate constant h-S-pio to h-R-pio” value came out at 0.439 h⁻¹.
The like results for `CCc1ccc(CCOc2ccc(C[C@@H]3SC(=O)NC3=O)cc2)nc1` [h-S-pio] were, in that order, 0.792 h⁻¹, 0.979 h⁻¹, 0.434 h⁻¹ and 0.427 h⁻¹.
